Data taken from the NIST ThermoML archive (doi:10.1016/j.jct.2011.10.013).

Tests used:
[1] = for surface tension liquid-gas: Dataphysics DCAT21 digital tensiometer; for mass density: Liquid, Vibrating tube method
[2] = xn = mol fraction of the nth substance listed; conditions: 298.15 K; for surface tension liquid-gas: Dataphysics DCAT21 digital tensiometer; for mass density: 101 kPa, Liquid, Vibrating tube method

CO [methanol]
Conditions	surface tension liquid-gas [mN/m]
[1], 298.15 K	22.09

Conditions	mass density [kg/m3]
[1], 298.15 K, 101 kPa	785.3

CCCCCCCC[n+]1ccccc1.O=[N+]([O-])[O-] [1-octylpyridinium nitrate] + CO
[2]
Conditions	mass density [kg/m3]	surface tension liquid-gas [mN/m]
x1 = 0.1026	910.2	27.4
x1 = 0.2063	974.3	30.11
x1 = 0.3072	1011.3	30.78
x1 = 0.4225	1038.4	32
x1 = 0.5067	1052.6	–
x1 = 0.6067	1065	–
x1 = 0.8534	1084.4	–
x1 = 0.936	1087.5	–
x1 = 1	1089.5	–

CCCCCCCC[n+]1ccccc1.O=[N+]([O-])[O-] [1-octylpyridinium nitrate]
[1]
Conditions	surface tension liquid-gas [mN/m]
293.15 K	36.12
298.15 K	35.76
303.15 K	35.5
308.15 K	35.18
313.15 K	34.76
318.15 K	34.48
323.15 K	34.12
328.15 K	33.78

[1], 101.33 kPa
Conditions	mass density [kg/m3]
293.15 K	1093.5
298.15 K	1089.5
303.15 K	1084.2
308.15 K	1078.6
313.15 K	1073.4
318.15 K	1068.6
323.15 K	1063.8
328.15 K	1059.7

CCCCO [butan-1-ol] + CCCCCCCC[n+]1ccccc1.O=[N+]([O-])[O-]
[2], x2 = 0
Conditions	mass density [kg/m3]	surface tension liquid-gas [mN/m]
–	805.6	23.67

CCCCO [butan-1-ol]
Conditions	surface tension liquid-gas [mN/m]
[1], 298.15 K	23.67

Conditions	mass density [kg/m3]
[1], 298.15 K, 101 kPa	805.6

CCO [ethanol] + CCCCCCCC[n+]1ccccc1.O=[N+]([O-])[O-]
[2], x2 = 0
Conditions	mass density [kg/m3]	surface tension liquid-gas [mN/m]
–	784.8	21.55

CCCCCCCC[n+]1ccccc1.O=[N+]([O-])[O-] [1-octylpyridinium nitrate] + CCO
[2]
Conditions	mass density [kg/m3]	surface tension liquid-gas [mN/m]
x1 = 0.2	939.3	26.44
x1 = 0.3035	981.4	27.83
x1 = 0.4063	1011.5	28.74
x1 = 0.5087	1034.2	29.75
x1 = 0.5903	1048.5	–
x1 = 0.7456	1069.4	–
x1 = 0.791	1073.9	–
x1 = 0.876	1081.5	–
x1 = 1	1089.5	–

CCCCCCCC[n+]1ccccc1.O=[N+]([O-])[O-] [1-octylpyridinium nitrate] + CCCCO
[2]
Conditions	mass density [kg/m3]	surface tension liquid-gas [mN/m]
x1 = 0.1245	875.3	25.17
x1 = 0.2008	910	25.84
x1 = 0.3038	948.6	26.35
x1 = 0.4019	978.1	26.92
x1 = 0.5012	1002	27.53
x1 = 0.6025	1023	–
x1 = 0.701	1041.7	–
x1 = 0.8005	1059	–
x1 = 0.899	1074.9	–
x1 = 1	1089.5	–

CCO [ethanol]
Conditions	surface tension liquid-gas [mN/m]
[1], 298.15 K	21.55

Conditions	mass density [kg/m3]
[1], 298.15 K, 101 kPa	784.8

CO [methanol] + CCCCCCCC[n+]1ccccc1.O=[N+]([O-])[O-]
[2], x2 = 0
Conditions	mass density [kg/m3]	surface tension liquid-gas [mN/m]
–	785.3	22.09
